Data on one compound can be found in patent US20130289056A1, “METHODS OF ADMINISTERING AN EGFR INHIBITOR” (Boehringer Ingelheim International GmbH, priority 2010, published 2013).

Data set [1] has as its system CaCo-2 cell layers. Kind of data set: Passive permeability through CaCo-2 cell layers. The format is in vitro ADME. From the text:
(§1) Passive Permeability through CaCo-2 Cell Layers and P-gp Transport Profiling: […]
In general terms: Caco-2 monolayers are a common model of the intestinal barrier.

Data set [2] has as its target P-glycoprotein (MDR1, ABCB1) (Homo sapiens, UniProt P08183). Kind of data set: P-gp transport profiling (substrate). In kind it is in vitro ADME. The settings on record: human, Caco-2 cell layers; estimated.
Source text: as §1

The target in data set [3] is T1, P-glycoprotein (a.k.a. MDR1, ABCB1) (Homo sapiens, UniProt P08183). Kind of data set: P-gp transport profiling (substrate). The format is in vitro ADME. Conditions: in vitro.
Source text: as §1

The target in data set [4] is T1, P-glycoprotein (a.k.a. MDR1, ABCB1). The data set can be described thus: Inhibition of P-gp by BIBW 2992. In kind it is in vitro ADME. Conditions: mean of two independent experiments; read-out: estimated Ki as inhibitor of P-gp.
Source text: as §1

Data set [5] concerns the target T2, CYP3A4 (Homo sapiens, UniProt P08684).
T2 construct: host or cells: healthy volunteers (in vivo)
Kind of data set: CYP3A4-catalysed metabolism of BIBW 2992 in vivo (previous studies).

For data set [6] the following is noted: in vivo; cited from earlier work.
Data set [7] can be described thus: Phase I two-way crossover trial: effect of ritonavir on pharmacokinetics of BIBW 2992.

T1 sequence (P08183 whole entry): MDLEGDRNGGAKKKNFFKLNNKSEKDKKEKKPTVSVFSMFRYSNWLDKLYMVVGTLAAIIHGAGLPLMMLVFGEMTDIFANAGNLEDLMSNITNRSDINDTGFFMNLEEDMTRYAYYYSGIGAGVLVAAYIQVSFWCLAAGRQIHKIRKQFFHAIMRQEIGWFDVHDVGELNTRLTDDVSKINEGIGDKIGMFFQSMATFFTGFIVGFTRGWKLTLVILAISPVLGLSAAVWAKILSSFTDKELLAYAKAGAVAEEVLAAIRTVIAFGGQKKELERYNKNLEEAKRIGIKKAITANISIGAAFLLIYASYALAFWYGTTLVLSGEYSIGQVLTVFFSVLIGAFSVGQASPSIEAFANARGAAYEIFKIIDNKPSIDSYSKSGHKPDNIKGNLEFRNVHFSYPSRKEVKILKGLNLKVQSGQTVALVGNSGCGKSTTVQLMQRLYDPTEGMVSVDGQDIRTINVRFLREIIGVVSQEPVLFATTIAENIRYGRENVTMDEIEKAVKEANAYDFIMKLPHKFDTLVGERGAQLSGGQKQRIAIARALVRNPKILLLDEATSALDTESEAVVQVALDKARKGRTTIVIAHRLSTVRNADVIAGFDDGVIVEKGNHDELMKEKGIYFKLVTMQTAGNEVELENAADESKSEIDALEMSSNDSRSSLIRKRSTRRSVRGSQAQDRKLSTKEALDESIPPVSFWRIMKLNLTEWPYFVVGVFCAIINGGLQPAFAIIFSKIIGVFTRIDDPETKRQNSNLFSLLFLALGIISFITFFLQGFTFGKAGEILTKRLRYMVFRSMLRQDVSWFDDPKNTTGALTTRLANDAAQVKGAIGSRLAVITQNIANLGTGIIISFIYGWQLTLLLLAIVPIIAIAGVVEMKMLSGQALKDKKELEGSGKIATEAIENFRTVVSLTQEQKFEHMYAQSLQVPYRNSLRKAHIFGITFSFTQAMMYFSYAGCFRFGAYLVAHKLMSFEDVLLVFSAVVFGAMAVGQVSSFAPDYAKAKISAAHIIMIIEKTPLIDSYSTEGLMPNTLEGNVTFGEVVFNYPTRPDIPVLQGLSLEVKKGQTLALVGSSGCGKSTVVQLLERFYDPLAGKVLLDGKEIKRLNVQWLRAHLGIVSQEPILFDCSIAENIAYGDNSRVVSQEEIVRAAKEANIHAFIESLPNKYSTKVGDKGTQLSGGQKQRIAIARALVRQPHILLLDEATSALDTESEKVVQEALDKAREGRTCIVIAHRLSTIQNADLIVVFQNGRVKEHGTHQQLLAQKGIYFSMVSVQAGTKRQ
T2 sequence (P08684 whole entry): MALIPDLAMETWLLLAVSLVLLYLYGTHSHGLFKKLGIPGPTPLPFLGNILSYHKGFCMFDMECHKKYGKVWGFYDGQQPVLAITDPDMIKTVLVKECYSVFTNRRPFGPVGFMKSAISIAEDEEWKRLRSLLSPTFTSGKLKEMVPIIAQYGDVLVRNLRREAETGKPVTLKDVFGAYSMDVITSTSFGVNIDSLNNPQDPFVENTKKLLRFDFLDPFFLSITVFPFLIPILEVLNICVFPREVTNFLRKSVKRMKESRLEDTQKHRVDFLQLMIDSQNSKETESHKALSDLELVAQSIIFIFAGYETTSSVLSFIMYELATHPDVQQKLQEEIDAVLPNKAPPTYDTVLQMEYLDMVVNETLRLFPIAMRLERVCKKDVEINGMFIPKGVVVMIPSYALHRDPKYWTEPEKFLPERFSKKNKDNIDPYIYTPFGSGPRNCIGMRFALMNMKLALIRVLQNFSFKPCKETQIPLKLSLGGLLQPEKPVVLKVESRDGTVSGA
Sequence of P-glycoprotein (MDR1, ABCB1) (P08183 whole entry): as the sequence (P08183 whole entry) above

Turning to `CN(C)C/C=C/C(=O)Nc1cc2c(Nc3ccc(F)c(Cl)c3)ncnc2cc1O[C@H]1CCOC1.O=C(O)/C=C\C(=O)O.O=C(O)/C=C\C(=O)O` [BIBW 2992, 4-[(3-chloro-4-fluorophenyl)amino]-6-{[4-(N,N-dimethylamino)-1-oxo-2-buten-1-yl]amino}-7-((S)-tetrahydrofuran-3-yloxy)-quinazoline], in data set [1], the passive permeability result is listed as “high”. The Km (in general, the substrate concentration at which the rate is half of its maximum) in data set [2] is 10 to 30 µM. The P-gp substrate status result in data set [3] is “substrate of P-gp”. Also, the Ki (commonly the equilibrium dissociation constant of an inhibitor or competing ligand from its target) in data set [4] is 3.4 µM. In addition, the “CYP3A4-dependent N-demethylation” value in data set [5] (healthy volunteers) is given as “too low to be quantitatively detected”. In data set [5] (in vivo), the “role of CYP3A4 enzyme-catalysed metabolic reactions for metabolism” value is “subordinate role”. In addition, the “dose dependence of exposure” value in data set [6] is “more than dose-proportional increase in exposure”. In addition, the “AUC0-∞ increase compared with BIBW 2992 given alone” value in data set [7] (BIBW 2992 20 mg oral with ritonavir 200 mg twice daily, healthy male volunteers, 90% CI 133.7%, 162.9%) came to 47.6%. Further, in data set [7] (BIBW 2992 20 mg oral with ritonavir 200 mg twice daily, healthy male volunteers, 90% CI 134.5%, 165.1%), the “AUC0-tz increase compared with BIBW 2992 given alone” value is recorded as 49.0%. Besides, the Tmax in data set [7] (male, human, in vivo, oral, 20 mg) stood at 4 h. For the same compound, the “terminal half-life, effect of ritonavir cotreatment” value in data set [7] (with ritonavir 200 mg bid vs alone) was “unchanged”.
